In article PMC4979471 (Cell Death Discovery, 2015):
Read-outs that look alike come from different tables or passages of the source.

Legend:
Assay in all cases: Kinase selectivity, P33-radiolabeled assay
Format in all cases: biochemical
Conditions in all cases: 10 μM ATP
AKT3 = biological target: T1, AKT3 (Homo sapiens, UniProt Q9Y243)
T1 construct: purchased Reaction Biology Corp
In short: (§1)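 Activity relative to DMSO controls (%) was measured for compound at 10 μM. Assays ran at 10 μM ATP, in duplicate.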

CLK1 = biological target: T2, CLK1 (Homo sapiens, UniProt P49759)
T2 construct: purchased Reaction Biology Corp
T2 sequence (P49759 whole entry): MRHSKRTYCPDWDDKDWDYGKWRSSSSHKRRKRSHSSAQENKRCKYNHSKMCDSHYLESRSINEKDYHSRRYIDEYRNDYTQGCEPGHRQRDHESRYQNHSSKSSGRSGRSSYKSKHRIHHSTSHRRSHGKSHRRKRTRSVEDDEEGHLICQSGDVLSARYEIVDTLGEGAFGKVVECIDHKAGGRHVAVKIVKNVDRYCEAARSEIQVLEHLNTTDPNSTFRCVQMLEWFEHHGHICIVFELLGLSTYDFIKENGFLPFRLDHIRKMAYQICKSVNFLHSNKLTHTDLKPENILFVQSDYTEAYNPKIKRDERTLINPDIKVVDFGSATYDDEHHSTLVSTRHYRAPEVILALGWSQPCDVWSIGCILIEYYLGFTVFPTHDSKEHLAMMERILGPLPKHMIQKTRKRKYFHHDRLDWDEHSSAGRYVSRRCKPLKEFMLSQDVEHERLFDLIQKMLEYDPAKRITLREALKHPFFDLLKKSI
In short: as §1

CTK/MATK = biological target: T3, CTK/MATK (Homo sapiens, UniProt P42679)
T3 construct: purchased Reaction Biology Corp
T3 sequence (P42679 1-507): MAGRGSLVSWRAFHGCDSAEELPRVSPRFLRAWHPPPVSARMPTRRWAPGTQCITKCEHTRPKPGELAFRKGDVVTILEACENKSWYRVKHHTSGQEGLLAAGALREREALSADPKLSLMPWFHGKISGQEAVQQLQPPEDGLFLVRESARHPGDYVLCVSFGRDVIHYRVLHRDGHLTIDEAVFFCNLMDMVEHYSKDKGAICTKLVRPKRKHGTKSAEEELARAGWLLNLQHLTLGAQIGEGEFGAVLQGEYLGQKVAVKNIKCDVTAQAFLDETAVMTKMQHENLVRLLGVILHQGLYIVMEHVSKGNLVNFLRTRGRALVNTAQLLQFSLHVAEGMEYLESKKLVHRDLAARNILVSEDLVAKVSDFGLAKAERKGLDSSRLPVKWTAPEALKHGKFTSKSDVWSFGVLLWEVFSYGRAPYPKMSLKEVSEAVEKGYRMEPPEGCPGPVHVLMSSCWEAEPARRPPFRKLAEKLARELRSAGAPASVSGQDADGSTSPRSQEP
In short: as §1

HPK1/MAP4K1 = biological target: T4, HPK1/MAP4K1 (Homo sapiens, UniProt Q92918)
T4 construct: purchased Reaction Biology Corp
T4 sequence (Q92918 whole entry): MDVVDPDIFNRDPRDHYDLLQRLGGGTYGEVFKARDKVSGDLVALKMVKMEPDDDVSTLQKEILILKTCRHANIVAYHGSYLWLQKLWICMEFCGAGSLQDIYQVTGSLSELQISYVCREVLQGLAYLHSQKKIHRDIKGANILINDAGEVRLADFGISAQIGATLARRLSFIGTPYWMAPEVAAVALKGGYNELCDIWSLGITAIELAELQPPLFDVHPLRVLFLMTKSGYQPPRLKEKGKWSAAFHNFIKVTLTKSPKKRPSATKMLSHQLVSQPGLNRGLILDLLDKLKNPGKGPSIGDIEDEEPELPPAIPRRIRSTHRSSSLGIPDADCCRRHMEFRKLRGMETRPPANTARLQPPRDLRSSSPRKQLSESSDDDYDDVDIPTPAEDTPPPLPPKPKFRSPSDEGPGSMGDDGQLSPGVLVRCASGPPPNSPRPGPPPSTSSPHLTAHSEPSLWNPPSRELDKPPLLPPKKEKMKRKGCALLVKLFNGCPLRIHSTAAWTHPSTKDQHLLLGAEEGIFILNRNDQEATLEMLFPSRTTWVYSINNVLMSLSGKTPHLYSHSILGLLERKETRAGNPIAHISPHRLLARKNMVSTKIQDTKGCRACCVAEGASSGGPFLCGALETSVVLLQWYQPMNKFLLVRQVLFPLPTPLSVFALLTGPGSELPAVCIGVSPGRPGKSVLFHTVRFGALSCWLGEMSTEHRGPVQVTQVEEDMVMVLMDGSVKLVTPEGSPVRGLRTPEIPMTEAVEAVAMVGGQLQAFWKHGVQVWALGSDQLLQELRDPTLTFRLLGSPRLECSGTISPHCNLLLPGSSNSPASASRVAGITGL
In short: as §1

LCK2/ICK = biological target: T5, LCK2/ICK (Homo sapiens, UniProt Q9UPZ9)
T5 construct: purchased Reaction Biology Corp
T5 sequence (Q9UPZ9 1-632): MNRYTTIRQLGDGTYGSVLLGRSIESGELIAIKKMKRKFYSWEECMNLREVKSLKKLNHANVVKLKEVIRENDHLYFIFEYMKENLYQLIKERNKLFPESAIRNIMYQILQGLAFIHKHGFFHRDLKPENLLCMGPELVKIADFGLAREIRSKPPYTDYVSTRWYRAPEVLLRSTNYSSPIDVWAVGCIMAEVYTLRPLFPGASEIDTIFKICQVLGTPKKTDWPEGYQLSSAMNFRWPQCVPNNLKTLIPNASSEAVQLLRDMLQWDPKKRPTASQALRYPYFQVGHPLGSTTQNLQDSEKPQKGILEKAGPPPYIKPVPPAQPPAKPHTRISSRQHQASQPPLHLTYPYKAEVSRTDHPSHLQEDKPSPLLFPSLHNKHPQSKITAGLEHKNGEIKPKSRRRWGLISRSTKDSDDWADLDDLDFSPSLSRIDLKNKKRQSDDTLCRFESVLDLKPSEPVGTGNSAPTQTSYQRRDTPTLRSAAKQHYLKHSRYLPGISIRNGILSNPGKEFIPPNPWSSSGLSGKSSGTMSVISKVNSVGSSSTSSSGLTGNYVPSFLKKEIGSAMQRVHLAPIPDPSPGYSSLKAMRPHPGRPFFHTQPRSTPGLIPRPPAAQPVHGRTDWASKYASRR
In short: as §1

MST2/STK3 = biological target: T6, MST2/STK3 (Homo sapiens, UniProt Q13188)
T6 construct: purchased Reaction Biology Corp
T6 sequence (Q13188 1-491): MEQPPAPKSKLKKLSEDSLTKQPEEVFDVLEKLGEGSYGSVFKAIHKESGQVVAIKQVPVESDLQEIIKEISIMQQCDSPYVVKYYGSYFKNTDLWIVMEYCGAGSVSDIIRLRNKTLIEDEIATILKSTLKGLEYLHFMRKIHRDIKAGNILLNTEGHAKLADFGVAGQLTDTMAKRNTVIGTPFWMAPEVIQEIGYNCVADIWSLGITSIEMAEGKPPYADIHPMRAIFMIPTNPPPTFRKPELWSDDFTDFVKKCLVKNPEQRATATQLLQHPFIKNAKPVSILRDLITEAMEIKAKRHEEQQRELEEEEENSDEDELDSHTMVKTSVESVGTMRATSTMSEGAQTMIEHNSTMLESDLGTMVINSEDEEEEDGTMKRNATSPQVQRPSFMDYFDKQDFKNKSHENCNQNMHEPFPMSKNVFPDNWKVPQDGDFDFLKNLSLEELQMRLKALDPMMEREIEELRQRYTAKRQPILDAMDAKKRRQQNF
In short: as §1

PHKg2 = biological target: T7, PHKg2 (Homo sapiens, UniProt P15735)
T7 construct: purchased Reaction Biology Corp
T7 sequence (P15735 1-406): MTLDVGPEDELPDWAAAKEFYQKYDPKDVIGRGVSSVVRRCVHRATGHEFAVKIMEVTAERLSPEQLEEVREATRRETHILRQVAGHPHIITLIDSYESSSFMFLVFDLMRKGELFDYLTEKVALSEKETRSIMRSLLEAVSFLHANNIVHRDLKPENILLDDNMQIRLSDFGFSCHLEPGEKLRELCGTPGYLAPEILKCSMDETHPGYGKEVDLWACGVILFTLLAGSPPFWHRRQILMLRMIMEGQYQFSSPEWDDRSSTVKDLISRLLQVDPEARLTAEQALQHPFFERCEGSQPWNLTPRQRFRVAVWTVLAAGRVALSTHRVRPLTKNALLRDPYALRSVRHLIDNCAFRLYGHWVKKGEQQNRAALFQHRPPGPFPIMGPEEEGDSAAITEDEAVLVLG
In short: as §1

PKN1/PRK1 = biological target: T8, PKN1/PRK1 (Homo sapiens, UniProt Q16512)
T8 construct: purchased Reaction Biology Corp
T8 sequence (Q16512 whole entry): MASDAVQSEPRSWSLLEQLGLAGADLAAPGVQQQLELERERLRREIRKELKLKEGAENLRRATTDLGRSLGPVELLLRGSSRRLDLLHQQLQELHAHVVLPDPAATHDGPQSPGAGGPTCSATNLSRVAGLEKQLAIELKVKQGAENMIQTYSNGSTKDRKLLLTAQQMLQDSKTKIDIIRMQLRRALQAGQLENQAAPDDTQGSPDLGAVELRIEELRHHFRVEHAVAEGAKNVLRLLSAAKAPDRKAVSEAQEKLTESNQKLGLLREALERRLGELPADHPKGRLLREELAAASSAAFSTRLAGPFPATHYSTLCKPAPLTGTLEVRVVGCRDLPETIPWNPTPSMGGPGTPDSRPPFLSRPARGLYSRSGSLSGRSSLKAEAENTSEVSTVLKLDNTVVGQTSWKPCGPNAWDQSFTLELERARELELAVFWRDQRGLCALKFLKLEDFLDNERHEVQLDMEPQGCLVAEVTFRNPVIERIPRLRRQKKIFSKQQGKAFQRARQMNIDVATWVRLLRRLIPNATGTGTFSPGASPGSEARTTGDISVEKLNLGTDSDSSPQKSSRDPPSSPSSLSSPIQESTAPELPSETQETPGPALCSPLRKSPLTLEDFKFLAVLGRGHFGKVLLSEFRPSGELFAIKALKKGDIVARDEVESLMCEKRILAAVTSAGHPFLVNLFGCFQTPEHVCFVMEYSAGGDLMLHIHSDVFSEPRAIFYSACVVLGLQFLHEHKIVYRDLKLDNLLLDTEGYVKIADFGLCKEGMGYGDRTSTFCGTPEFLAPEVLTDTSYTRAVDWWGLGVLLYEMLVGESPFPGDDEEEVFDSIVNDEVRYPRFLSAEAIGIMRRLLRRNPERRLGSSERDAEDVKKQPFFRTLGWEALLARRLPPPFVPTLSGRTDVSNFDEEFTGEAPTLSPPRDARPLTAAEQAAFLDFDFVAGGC
In short: as §1

STK39/STLK3 = biological target: T9, STK39/STLK3 (Homo sapiens, UniProt Q9UEW8)
T9 construct: purchased Reaction Biology Corp
In short: as §1

[1] = read-out: % Enzyme Activity (relative to DMSO controls) AVG
[2] = read-out: % Enzyme Activity (relative to DMSO controls) Data 1
[3] = read-out: % Enzyme Activity (relative to DMSO controls) Data 2

T1 sequence (Q9Y243 whole entry): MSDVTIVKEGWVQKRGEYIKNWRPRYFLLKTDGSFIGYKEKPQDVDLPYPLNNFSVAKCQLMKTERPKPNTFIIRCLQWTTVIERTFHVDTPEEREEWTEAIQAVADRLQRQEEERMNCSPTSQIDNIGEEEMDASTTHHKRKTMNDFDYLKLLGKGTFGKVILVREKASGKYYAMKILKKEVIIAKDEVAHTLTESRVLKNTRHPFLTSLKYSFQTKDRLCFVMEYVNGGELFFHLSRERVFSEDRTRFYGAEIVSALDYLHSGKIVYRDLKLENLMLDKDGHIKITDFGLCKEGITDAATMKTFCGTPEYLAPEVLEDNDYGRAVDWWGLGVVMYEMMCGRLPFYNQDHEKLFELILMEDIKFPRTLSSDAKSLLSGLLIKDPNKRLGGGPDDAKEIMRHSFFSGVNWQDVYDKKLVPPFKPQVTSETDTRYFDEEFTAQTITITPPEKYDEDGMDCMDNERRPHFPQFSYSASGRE

CC(C)(C)C(=O)N1N=CC[C@H]1c1ccccc1 [GSK′963]
remaining activity at 10 µM (AKT3; [1]): 102% | remaining activity at 10 µM (AKT3; [2]): 100% | remaining activity at 10 µM (AKT3; [3]): 103% | remaining activity at 10 µM (CLK1; [1]): 107% | remaining activity at 10 µM (CLK1; [2]): 108% | remaining activity at 10 µM (CLK1; [3]): 106% | remaining activity at 10 µM (CTK/MATK; [1]): 93% | remaining activity at 10 µM (CTK/MATK; [2]): 91.5% | remaining activity at 10 µM (CTK/MATK; [3]): 94.5% | remaining activity at 10 µM (HPK1/MAP4K1; [1]): 100% | remaining activity at 10 µM (HPK1/MAP4K1; [2]): 100% | remaining activity at 10 µM (HPK1/MAP4K1; [3]): 101% | remaining activity at 10 µM (LCK2/ICK; [1]): 101% | remaining activity at 10 µM (LCK2/ICK; [2]): 100% | remaining activity at 10 µM (LCK2/ICK; [3]): 101% | remaining activity at 10 µM (MST2/STK3; [1]): 107% | remaining activity at 10 µM (MST2/STK3; [2]): 105% | remaining activity at 10 µM (MST2/STK3; [3]): 109% | remaining activity at 10 µM (PHKg2; [1]): 110% | remaining activity at 10 µM (PHKg2; [2]): 111% | remaining activity at 10 µM (PHKg2; [3]): 110% | remaining activity at 10 µM (PKN1/PRK1; [1]): 103% | remaining activity at 10 µM (PKN1/PRK1; [2]): 104% | remaining activity at 10 µM (PKN1/PRK1; [3]): 102% | remaining activity at 10 µM (STK39/STLK3; [1]): 95.1% | remaining activity at 10 µM (STK39/STLK3; [2]): 100% | remaining activity at 10 µM (STK39/STLK3; [3]): 89.9%
